According to patent publication US10227323B2, “Glucosylceramide synthase inhibitors for the treatment of diseases” (BIOMARIN PHARMACEUTICAL INC., priority 2013, dated 2019):

target: T1, GCS (Canis lupus familiaris, UniProt A0A8I3MXG6); experiment: Assay 1: GCS Enzymatic Assay (MDCK cell lysate, C6-NBD-Ceramide, LC/MS); format: biochemical, canine; conditions: Table 1; MDCK cell lysate; read-out: IC50 (nM) generated from Assay 1
T1 sequence (A0A8I3MXG6 1-394): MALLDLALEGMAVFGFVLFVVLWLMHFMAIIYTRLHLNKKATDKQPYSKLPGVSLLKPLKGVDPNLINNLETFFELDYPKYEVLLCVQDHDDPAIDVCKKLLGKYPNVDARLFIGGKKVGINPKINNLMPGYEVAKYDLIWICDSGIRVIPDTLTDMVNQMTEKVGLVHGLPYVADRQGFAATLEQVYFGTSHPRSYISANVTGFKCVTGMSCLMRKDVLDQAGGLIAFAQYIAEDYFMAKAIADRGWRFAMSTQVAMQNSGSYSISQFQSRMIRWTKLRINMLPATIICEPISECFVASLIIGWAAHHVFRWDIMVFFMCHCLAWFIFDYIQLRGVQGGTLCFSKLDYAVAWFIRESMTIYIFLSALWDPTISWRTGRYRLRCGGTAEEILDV
Procedure, shortened: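 LC/MS/MS measurement of glucosylceramide and NBD-ceramide after a 1 h, 37 °C reaction with 100 μM UDP-glucose and 10 μM C6-NBD-ceramide gave IC50s or percent inhibition.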

Row | Compound | IC50 [nM]
1 | O=C(N[C@H](CN1CCCC1)[C@H](O)c1ccc(OC2CC2)c(Cl)c1)C(F)(F)C1Cc2ccc(Cl)cc2C1 (stereo partly drawn) [Compound 67, 2-(5-chloro-2,3-dihydro-1H-inden-2-yl)-N-((1R,2R)-1-(3-chloro-4-cyclopropoxyphenyl)-1-hydroxy-3-(pyrrolidin-1-yl)propan-2-yl)-2,2-difluoroacetamide] | < 50
2 | Cn1c(C(F)(F)C(=O)N[C@H](CN2CCCC2)[C@H](O)c2ccc3c(c2)OCCO3)cc2cc(Cl)ccc21 [Compound 14, 2-(5-chloro-1-methyl-1H-indol-2-yl)-N-((1R,2R)-1-(2,3-dihydrobenzo[b][1,4]dioxin-6-yl)-1-hydroxy-3-(pyrrolidin-1-yl)propan-2-yl)-2,2-difluoroacetamide] | < 50
3 | CC1CN(C[C@@H](NC(=O)C(F)(F)c2cc3cc(Cl)ccc3o2)[C@H](O)c2ccc3c(c2)OCCO3)C1 [Compound 66, 2-(5-chlorobenzofuran-2-yl)-N-((1R,2R)-1-(2,3-dihydrobenzo[b][1,4]dioxin-6-yl)-1-hydroxy-3-(3-methylazetidin-1-yl)propan-2-yl)-2,2-difluoroacetamide] | < 50

same assay, conditions: Table 1; values marked *; MDCK cell lysate

Row | Compound | % inhibition generated from Assay 1
4 | CC1(C)CCN(C[C@@H](NC(=O)C(F)(F)c2cc3cc(Cl)ccc3o2)[C@@H](O)c2ccc3c(c2)OCCO3)C1 [Compound 36C, 2-(5-chlorobenzofuran-2-yl)-N-((1S,2R)-1-(2,3-dihydrobenzo[b][1,4]dioxin-6-yl)-3-(3,3-dimethylpyrrolidin-1-yl)-1-hydroxypropan-2-yl)-2,2-difluoroacetamide] | B* (the compound had a % inhibition of greater than or equal to about 3% but less than about 50%)
5 | COc1ccc([C@H](O)[C@@H](CN2CCCC2)NC(=O)C(F)(F)c2cc3cc(Cl)ccc3o2)cc1C(F)F [Compound 59I, 2-(5-chlorobenzofuran-2-yl)-N-((1S,2R)-1-(3-(difluoromethyl)-4-methoxyphenyl)-1-hydroxy-3-(pyrrolidin-1-yl)propan-2-yl)-2,2-difluoroacetamide] | B* (the compound had a % inhibition of greater than or equal to about 3% but less than about 50%)
6 | O=C(N[C@H](CN1CCCC1)[C@H](O)c1ccc2ncccc2c1)C(F)(F)c1cc2cc(Cl)ccc2o1 [Compound 34, 2-(5-chlorobenzofuran-2-yl)-2,2-difluoro-N-((1R,2R)-1-hydroxy-3-(pyrrolidin-1-yl)-1-(quinolin-6-yl)propan-2-yl)acetamide] | A* (the compound had a % inhibition of a percent inhibition of greater than or equal to about 50%)

same assay, conditions: Table 2; data marked by *

Row | Compound | % inhibition generated from Assay 1
7 | O=C(N[C@H](CN1CCCC1)[C@H](O)c1ccc2c(c1)OCCO2)C(F)(F)c1csc(-c2ccc(F)cc2)n1 [Compound 211, N-((1R,2R)-1-(2,3-dihydrobenzo[b][1,4]dioxin-6-yl)-1-hydroxy-3-(pyrrolidin-1-yl)propan-2-yl)-2,2-difluoro-2-(2-(4-fluorophenyl)thiazol-4-yl)acetamide] | B* (the compound had a % inhibition of greater than or equal to about 3% but less than about 50%)
8 | Cn1ncc2cc(C(=O)C(=O)N[C@H](CN3CCCC3)[C@H](O)c3ccc(OC4CC4)c(Cl)c3)ccc21 [Compound 224, N-((1R,2R)-1-(3-chloro-4-cyclopropoxyphenyl)-1-hydroxy-3-(pyrrolidin-1-yl)propan-2-yl)-2-(1-methyl-1H-indazol-5-yl)-2-oxoacetamide] | A* (the compound had a % inhibition of a percent inhibition of greater than or equal to about 50%)
9 | O=C(CCc1ccc2ccccc2c1)C(=O)N[C@H](CN1CCC1)[C@H](O)c1ccc(OC2CC2)c(Cl)c1 [Compound 170, N-((1R,2R)-3-(azetidin-1-yl)-1-(3-chloro-4-cyclopropoxyphenyl)-1-hydroxypropan-2-yl)-4-(naphthalen-2-yl)-2-oxobutanamide] | B* (the compound had a % inhibition of greater than or equal to about 3% but less than about 50%)
10 | O=C(N[C@H](CN1CCCC1)[C@H](O)c1ccc(OC2CC2)c(Cl)c1)C(=O)c1ccc2sc(Cl)cc2c1 [Compound 225, N-((1R,2R)-1-(3-chloro-4-cyclopropoxyphenyl)-1-hydroxy-3-(pyrrolidin-1-yl)propan-2-yl)-2-(2-chlorobenzo[b]thiophen-5-yl)-2-oxoacetamide] | B* (the compound had a % inhibition of greater than or equal to about 3% but less than about 50%)

same assay, conditions: Table 2; data without asterisk; read-out: IC50 (nM) generated from Assay 1

Row | Compound | IC50 [nM]
11 | O=C(N[C@H](CN1CCC1)[C@H](O)c1cc(F)c2c(c1)OCCO2)C(=O)c1cc2cc(Cl)ccc2o1 [Compound 89, N-((1R,2R)-3-(azetidin-1-yl)-1-(8-fluoro-2,3-dihydrobenzo[b][1,4]dioxin-6-yl)-1-hydroxypropan-2-yl)-2-(5-chlorobenzofuran-2-yl)-2-oxoacetamide] | < 50
12 | CC1CN(C[C@@H](NC(=O)/C(=N/O)c2cc3cc(Cl)ccc3o2)[C@H](O)c2ccc3c(c2)OCCO3)C1 [Compound 102, (E)-2-(5-chlorobenzofuran-2-yl)-N-((1R,2R)-1-(2,3-dihydrobenzo[b][1,4]dioxin-6-yl)-1-hydroxy-3-(3-methylazetidin-1-yl)propan-2-yl)-2-(hydroxyimino)acetamide] | < 50
13 | CC(C)n1ccc2ccc(C(=O)C(=O)N[C@H](CN3CCCC3)[C@H](O)c3cc(F)c4c(c3)OCCO4)cc21 [Example 331, N-((1R,2R)-1-(8-fluoro-2,3-dihydrobenzo[b][1,4]dioxin-6-yl)-1-hydroxy-3-(pyrrolidin-1-yl)propan-2-yl)-2-(1-isopropyl-1H-indo1-6-yl)-2-oxoacetamide] | < 50
14 | O=C(N[C@H](CN1CCCC1)[C@H](O)c1ccc(OC2COC2)c(Cl)c1)C(F)(F)CCc1ccc2ccccc2c1 [Compound 129, N-((1R,2R)-1-(3-chloro-4-(oxetan-3-yloxy)phenyl)-1-hydroxy-3-(pyrrolidin-1-yl)propan-2-yl)-2,2-difluoro-4-(naphthalen-2-yl)butanamide] | < 50
15 | O=C(N[C@H](CN1CCCC1)[C@H](O)c1cc(F)c2c(c1)OCCO2)C(F)(F)c1ccc(-c2ccc(F)cc2)cc1 [Compound 140, 2,2-difluoro-N-((1R,2R)-1-(8-fluoro-2,3-dihydrobenzo[b][1,4]dioxin-6-yl)-1-hydroxy-3-(pyrrolidin-1-yl)propan-2-yl)-2-(4′-fluoro-[1,1′-biphenyl]-4-yl)acetamide] | < 50
16 | O=C(N[C@H](CN1CCCC1)[C@H](O)c1ccc(OC2CCOCC2)c(Cl)c1)C(F)(F)C1Cc2ccc(Cl)cc2C1 (stereo partly drawn) [Compound 116, 2-(5-chloro-2,3-dihydro-1H-inden-2-yl)-N-((1R,2R)-1-(3-chloro-4-((tetrahydro-2H-pyran-4-yl)oxy)phenyl)-1-hydroxy-3-(pyrrolidin-1-yl)propan-2-yl)-2,2-difluoroacetamide] | < 50
17 | Cn1cc2cc(-c3ccc(C(=O)C(=O)N[C@H](CN4CCCC4)[C@H](O)c4cc(F)c5c(c4)OCCO5)cc3)ccc2n1 [Compound 240, N-((1R,2R)-1-(8-fluoro-2,3-dihydrobenzo[b][1,4]dioxin-6-yl)-1-hydroxy-3-(pyrrolidin-1-yl)propan-2-yl)-2-(4-(2-methyl-2H-indazol-5-yl)phenyl)-2-oxoacetamide] | < 50
18 | O=C(N[C@H](CN1CCCC1)[C@H](O)c1ccc(OCC(F)(F)F)nc1)C(F)(F)c1cc2cc(Cl)ccc2o1 [Compound 85, 2-(5-chlorobenzofuran-2-yl)-2,2-difluoro-N-((1R,2R)-1-hydroxy-3-(pyrrolidin-1-yl)-1-(6-(2,2,2-trifluoroethoxy)pyridin-3-yl)propan-2-yl)acetamide] | < 50
19 | O=C(N[C@H](CN1CCCC1)[C@H](O)c1ccc(OC2CC2)c(Cl)c1)C(=O)c1ccc2oc3ccc(Br)cc3c2c1 [Example 302, 2-(8-bromodibenzo[b,d]furan-2-yl)-N-((1R,2R)-1-(3-chloro-4-cyclopropoxyphenyl)-1-hydroxy-3-(pyrrolidin-1-yl)propan-2-yl)-2-oxoacetamide] | < 50
20 | O=C(N[C@H](CN1CCCC1)[C@H](O)c1cc(F)c2c(c1)OCCO2)C(=O)c1cc2ccc(Cl)cc2o1 [Compound 366, 2-(6-chlorobenzofuran-2-yl)-N-((1R,2R)-1-(8-fluoro-2,3-dihydrobenzo[b][1,4]dioxin-6-yl)-1-hydroxy-3-(pyrrolidin-1-yl)propan-2-yl)-2-oxoacetamide] | < 50
21 | Cn1ncc2cc(-c3ccc(C(F)(F)C(=O)N[C@H](CN4CCCC4)[C@H](O)c4ccc5c(c4)OCCO5)cc3)ccc21 [Compound 212, N-((1R,2R)-1-(2,3-dihydrobenzo[b][1,4]dioxin-6-yl)-1-hydroxy-3-(pyrrolidin-1-yl)propan-2-yl)-2,2-difluoro-2-(4-(1-methyl-1H-indazol-5-yl)phenyl)acetamide] | < 50
22 | CC(C)n1cc2cc(-c3ccc(C(=O)C(=O)N[C@H](CN4CCCC4)[C@H](O)c4ccc(OC5CC5)c(Cl)c4)cc3)ccc2n1 [Example 259, N-((1R,2R)-1-(3-chloro-4-cyclopropoxyphenyl)-1-hydroxy-3-(pyrrolidin-1-yl)propan-2-yl)-2-(4-(2-isopropyl-2H-indazol-5-yl)phenyl)-2-oxoacetamide] | < 50

same assay, conditions: Table 3; MDCK cell lysate; read-out: IC50 (nM) generated from Assay 1

Row | Compound | IC50 [nM]
23 | O=C(N[C@H](CN1CCCC1)[C@H](O)c1ccc(OC2CC2)c(Cl)c1)C(=O)c1cc2cc(Cl)ccc2s1 [Example 384, N-((1R,2R)-1-(3-chloro-4-cyclopropoxyphenyl)-1-hydroxy-3-(pyrrolidin-1-yl)propan-2-yl)-2-(5-chlorobenzo[b]thiophen-2-yl)-2-oxoacetamide] | < 50
